# What was measured:
# [1] = Example 4B: residual ratio at 50, 60, 70° C. and Arrhenius estimation at 25° C.; format: physicochemical; details: for Kobs: estimation at 25° C. (Arrhenius plot); for Residual ratio (%) estimation: estimation at 25° C.
# Protocol: According to Table 13, Compound A1 was dissolved at 2 concentrations in each of the buffer solutions having a pH at each of both ends of Example 4A. Each of these solutions was dispensed into a glass vial and stored at each of 50° C., 60° C., and 70° C. After the storage, a residual ratio was calculated according to a test method described below.
# Test method: In the solution after the storage, the residual ratio was analyzed according to a normal method using a liquid chromatography apparatus Prominence (manufactured by Shimadzu Corporation) and an ultraviolet absorptiometer (measurement wavelength: 254 nm, Prominence (manufactured by Shimadzu Corporation)). At this time, SUMIPAX ODS (3 mm×150 mm, […], manufactured by SCAS) was used as a column.
# The calculation for obtaining the residual ratio (%) of Compound A1 during each storage period is as follows.
# Residual ratio (%) of Compound A1 during each storage period=peak area of Compound A1 in sample solution/peak area of Compound A1 in standard solution×100
# Here, “Compound A1 in standard solution” refers to a solution obtained by dissolving Compound A1 in each of the buffer solutions shown in Table 13 so that a concentration was 0.1 mg/mL, and then storing the solution at 5° C. It was clear from the results of Example 1 that the solution of Compound A1 was stable when being stored at 5° C., and thus, the solution was used as the standard solution.
# The reaction rate constant at each of the storing temperatures was calculated using the obtained residual ratio. The Arrhenius plot was performed to calculate the reaction rate constant (h^−1) at an arbitrary temperature. As an example, the residual ratio estimation at 25° C. is shown in Table 15 and described in FIG. 1.
# [2] = system: bilaterally nephrectomized rats; test: Survival of bilaterally nephrectomized rats after single doses; format: in vivo, rat; details: 48 hours after the administration, all administered groups (0.3, 3, 30 mg/kg)
# From the text: After quarantine and acclimatization periods of 6 days, fifty-one rats (Crl: CD (SD), male) aged 7 weeks were fed a 100% sucrose diet ad libitum from four days before the surgery. On the day of the surgery, skin incisions were made on the back at the sites of the right and left kidneys under isoflurane anesthesia and the renal capsules were removed to ligate the renal arteries and veins and the ureters using threads before removing the right and left kidneys. A penicillin solution was given upon suturing, and 5 mL of physiological saline was intraperitoneally administered before returning the rats into the breeding cages.
# On a day after the bilaterally nephrectomy, the given doses were calculated based on the weight of the selected animals on that day. Group 1 was given a medium (physiological saline), Groups 2, 3 and 4 were given the Compound A1 solution (0.3, 3 and 30 mg/mL, respectively), and Groups 5, 6, 7 and 8 (5 rats per group) were given the comparative compound (0.3, 1, 3 and 10 mg/mL, respectively), each given a single dose of 1 ml/kg from the tail vein. Prior to the administration (0 hours), and 24 and 48 hours after the administration, approximately 300 μL of blood was collected without anesthesia from the tail vein using capillary tubes for obtaining the serum. The blood for obtaining the serum was left to stand at room temperature, and centrifuged in a high speed refrigerated microcentrifuge (10,000 rpm, 5 min, 4° C.) within a period of 30 minutes to 2 hours after the blood collection to collect the serum.
# [3] = Non-clinical studies of excretion and elimination (normal rat); format: in vivo
# [4] = system: serum iPTH; test: PK and PK/PD analysis of P1 (three-compartment model, indirect response model incorporating rebound); format: in vivo, human; details: ±standard error
# Protocol: A PK/PD analysis was conducted to estimate the clinically effective dose based on the results from P1. The dose of 2.5 mg seemed to be excessive and thus was eliminated from the analysis. PK (mean plasma concentration) and PD (mean iPTH level normalized by the levels of the placebo group and the 0-hour level) data of the doses of 0.01 mg, 0.1 mg and 1 mg were used. An indirect response model incorporating rebound was used for the PK/PD analysis.
# Based on the results of PK of the three given doses (0.01 mg, 0.1 mg, and 1 mg) in P1, the three given doses were simultaneously analyzed using a three-compartment model to calculate the PK parameters (FIG. 2-5 and Table 16-2).
# Using the calculated PK parameters as an input function, PK/PD analysis was performed using an indirect response model incorporating rebound (FIG. 2-6) to calculate the EC50 value in healthy adults (FIG. 2-7 and Table 16-3).
structure (smiles),measurement,setting,value
"Cc1c(Cl)cc(S(=O)(=O)[O-])cc1NC(=O)NC[C@H](N)C(=O)O.[Na+] [Compound A1, sodium 3-{[(2S)-2-amino-2-carboxyethyl]carbamoylamino}-5-chloro-4-methylbenzenesulfonate]",Kobs,"[1]; pH 1.1, 0.1 mg/mL",3.01e-06 h⁻¹
same,Kobs,"[1]; pH 1.1, 10 mg/mL",5.55e-06 h⁻¹
same,Kobs,"[1]; pH 7.0, 0.1 mg/mL",3.1e-06 h⁻¹
same,Kobs,"[1]; pH 7.0, 10 mg/mL",5.73e-06 h⁻¹
same,Residual ratio (%) estimation,"[1]; pH 1.1, 0.1 mg/mL, 3M",99.4%
same,Residual ratio (%) estimation,"[1]; pH 1.1, 0.1 mg/mL, 6M",98.7%
same,Residual ratio (%) estimation,"[1]; pH 1.1, 0.1 mg/mL, 12M",97.4%
same,Residual ratio (%) estimation,"[1]; pH 1.1, 10 mg/mL, 3M",98.8%
same,Residual ratio (%) estimation,"[1]; pH 1.1, 10 mg/mL, 6M",97.6%
same,Residual ratio (%) estimation,"[1]; pH 1.1, 10 mg/mL, 12M",95.3%
same,Residual ratio (%) estimation,"[1]; pH 7.0, 0.1 mg/mL, 3M",99.3%
same,Residual ratio (%) estimation,"[1]; pH 7.0, 0.1 mg/mL, 6M",98.7%
same,Residual ratio (%) estimation,"[1]; pH 7.0, 0.1 mg/mL, 12M",97.4%
same,Residual ratio (%) estimation,"[1]; pH 7.0, 10 mg/mL, 3M",98.8%
same,Residual ratio (%) estimation,"[1]; pH 7.0, 10 mg/mL, 6M",97.6%
same,Residual ratio (%) estimation,"[1]; pH 7.0, 10 mg/mL, 12M",95.2%
same,storage stability,"[1]; formulation with pH of 1.1 and 7.0, 25° C., over 12 months (estimation)",excellent storage stability
same,Residual ratio (%),"[1]; pH 1.1, 0.1 mg/mL, 50° C., 23 hours",98.9%
same,Residual ratio (%),"[1]; pH 1.1, 0.1 mg/mL, 50° C., 141 hours",96.9%
same,Residual ratio (%),"[1]; pH 1.1, 0.1 mg/mL, 50° C., 570 hours",92.3%
same,Residual ratio (%),"[1]; pH 1.1, 0.1 mg/mL, 60° C., 23 hours",97.8%
same,Residual ratio (%),"[1]; pH 1.1, 0.1 mg/mL, 60° C., 141 hours",92.0%
same,Residual ratio (%),"[1]; pH 1.1, 0.1 mg/mL, 60° C., 570 hours",76.7%
same,Residual ratio (%),"[1]; pH 1.1, 0.1 mg/mL, 70° C., 23 hours",94.5%
same,Residual ratio (%),"[1]; pH 1.1, 0.1 mg/mL, 70° C., 141 hours",76.8%
same,Residual ratio (%),"[1]; pH 1.1, 0.1 mg/mL, 70° C., 570 hours",35.5%
same,Residual ratio (%),"[1]; pH 1.1, 10 mg/mL, 50° C., 23 hours",96.2%
same,Residual ratio (%),"[1]; pH 1.1, 10 mg/mL, 50° C., 141 hours",96.4%
same,Residual ratio (%),"[1]; pH 1.1, 10 mg/mL, 50° C., 570 hours",89.5%
same,Residual ratio (%),"[1]; pH 1.1, 10 mg/mL, 60° C., 23 hours",96.4%
same,Residual ratio (%),"[1]; pH 1.1, 10 mg/mL, 60° C., 141 hours",95.6%
same,Residual ratio (%),"[1]; pH 1.1, 10 mg/mL, 60° C., 570 hours",73.4%
same,Residual ratio (%),"[1]; pH 1.1, 10 mg/mL, 70° C., 23 hours",92.5%
same,Residual ratio (%),"[1]; pH 1.1, 10 mg/mL, 70° C., 141 hours",84.2%
same,Residual ratio (%),"[1]; pH 1.1, 10 mg/mL, 70° C., 570 hours",36.5%
same,Residual ratio (%),"[1]; pH 7.0, 0.1 mg/mL, 50° C., 23 hours",99.6%
same,Residual ratio (%),"[1]; pH 7.0, 0.1 mg/mL, 50° C., 141 hours",97.7%
same,Residual ratio (%),"[1]; pH 7.0, 0.1 mg/mL, 50° C., 570 hours",90.9%
same,Residual ratio (%),"[1]; pH 7.0, 0.1 mg/mL, 60° C., 23 hours",98.2%
same,Residual ratio (%),"[1]; pH 7.0, 0.1 mg/mL, 60° C., 141 hours",89.2%
same,Residual ratio (%),"[1]; pH 7.0, 0.1 mg/mL, 60° C., 570 hours",63.9%
same,Residual ratio (%),"[1]; pH 7.0, 0.1 mg/mL, 70° C., 23 hours",93.8%
same,Residual ratio (%),"[1]; pH 7.0, 0.1 mg/mL, 70° C., 141 hours",68.0%
same,Residual ratio (%),"[1]; pH 7.0, 0.1 mg/mL, 70° C., 570 hours",21.1%
same,Residual ratio (%),"[1]; pH 7.0, 10 mg/mL, 50° C., 23 hours",100.0%
same,Residual ratio (%),"[1]; pH 7.0, 10 mg/mL, 50° C., 141 hours",98.0%
same,Residual ratio (%),"[1]; pH 7.0, 10 mg/mL, 50° C., 570 hours",89.0%
same,Residual ratio (%),"[1]; pH 7.0, 10 mg/mL, 60° C., 23 hours",97.2%
same,Residual ratio (%),"[1]; pH 7.0, 10 mg/mL, 60° C., 141 hours",86.3%
same,Residual ratio (%),"[1]; pH 7.0, 10 mg/mL, 60° C., 570 hours",61.0%
same,Residual ratio (%),"[1]; pH 7.0, 10 mg/mL, 70° C., 23 hours",91.7%
same,Residual ratio (%),"[1]; pH 7.0, 10 mg/mL, 70° C., 141 hours",64.4%
same,Residual ratio (%),"[1]; pH 7.0, 10 mg/mL, 70° C., 570 hours",22.2%
same,number of rats surviving (of five per group),[2],five
same,elimination from the plasma,[3]; intravenously administered to a normal rat,rapidly eliminated
same,main route of excretion,[3]; non-clinical studies,renal excretion
same,Emax,"[4]; healthy adults, indirect response model incorporating rebound",0.920 ± 0.027 ratio
same,K12,[4]; three-compartment model,0.658 ± 0.136 h⁻¹
same,K13,[4]; three-compartment model,4.42 ± 1.80 h⁻¹
same,K21,[4]; three-compartment model,0.819 ± 0.049 h⁻¹
same,K31,[4]; three-compartment model,6.89 ± 1.33 h⁻¹
same,Ke,[4]; three-compartment model,1.28 ± 0.15 h⁻¹

# From US20220142958A1, “MEDICINAL COMPOSITION HAVING EXCELLENT STABILITY” (EA Pharma Co., Ltd., priority 2019, published 2022)
